US20260092061A1, “COMPOUNDS FOR TARGETED PROTEIN DEGRADATION” (Amphista Therapeutics Limited, priority 2022, published 2026)
Read-outs that look alike come from different tables or passages of the source.

Target: T1, BRD9 (Homo sapiens, UniProt Q9H8M2)
T1 sequence (Q9H8M2 1-597): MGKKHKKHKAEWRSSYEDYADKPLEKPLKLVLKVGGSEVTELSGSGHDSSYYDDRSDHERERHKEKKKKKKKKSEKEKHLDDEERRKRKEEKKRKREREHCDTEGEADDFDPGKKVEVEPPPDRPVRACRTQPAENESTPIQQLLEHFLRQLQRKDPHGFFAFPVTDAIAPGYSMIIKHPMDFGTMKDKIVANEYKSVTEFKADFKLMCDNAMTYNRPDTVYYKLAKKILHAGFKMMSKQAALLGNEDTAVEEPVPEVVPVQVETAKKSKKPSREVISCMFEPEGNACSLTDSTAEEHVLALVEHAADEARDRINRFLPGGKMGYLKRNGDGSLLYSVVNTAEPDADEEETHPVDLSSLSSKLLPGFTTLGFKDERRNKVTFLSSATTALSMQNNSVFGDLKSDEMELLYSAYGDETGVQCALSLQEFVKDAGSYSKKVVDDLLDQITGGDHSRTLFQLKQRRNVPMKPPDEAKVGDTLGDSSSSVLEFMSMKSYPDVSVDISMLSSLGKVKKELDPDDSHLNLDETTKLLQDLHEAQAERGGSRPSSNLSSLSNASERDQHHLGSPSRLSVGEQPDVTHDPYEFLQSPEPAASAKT
Assay: Degradation of BRD9 (IF), immunofluorescence in MV4-11 cells, 24 hours (Assay Protocol 2)
Assay type: cell-based
Parameters: A suspension of MV4-11 cells (ATCC CRL-9591) was prepared; host or cells: MV4-11
Details: BRD9 degradation; for DC50: read-out: DC50
Method in brief: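 % BRD9 remaining, scaled between DMSO (high) and 100 nM CFT-8634 (low) control wells, derives from mean Alexa 647 contrast in central nuclei by high-content imaging. MV4-11 cells had 24 h compound exposure at 37° C. before PFA fixation, Triton permeabilisation and anti-BRD9 E4Q3F immunostaining.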

[1] = MV4-11, Assay protocol 2, read-out: Dmax

SMILES | DC50 (Assay protocol 2) [nM] | Dmax [1] [%] | Dmax (Assay protocol 2)
COc1cc(-c2cn(C)c(=O)c(C)c2C)cc(OC)c1CN1CCN(Cc2cccc3c2CCN(C(=O)/C(C#N)=C/C(C)(C)C)C3C)C(=O)C1 (mixture of isomers) [Compound B155, (E/Z)-2-(5-((4-(2,6-dimethoxy-4-(1,4,5-trimethyl-8-oxo-1,6-dihydropyridin-3-yl)benzyl)-2-oxopiperazin-1-yl)methyl)-1-methyl-1,2,3,4-tetrahydroisoquinoline-2-carbonyl)-4,4-dimethylpent-2-enenitrile] | 25 to 1000 | 40 to 70 | 
COc1cc(-c2cn(C)c(=O)c(C)c2C)cc(OC)c1CN1CCC(O)(Cc2cccc3c2CCN(C(=O)/C(C#N)=C/C(C)(C)C)C3C)CC1 (mixture of isomers) [Compound B175, (E/Z)-2-(5-((1-(2,6-dimethoxy-4-(1,4,5-trimethyl-6-oxo-1,6-dihydropyridin-3-yl)benzyl)-4-hydroxypiperidin-4-yl)methyl)-1-methyl-1,2,3,4-tetrahydroisoquinoline-2-carbonyl)-4,4-dimethylpent-2-enenitrile] | 25 to 1000 | 40 to 70 | 
COc1cc(-c2cn(C)c(=O)c(C)c2C)cc(OC)c1CN1C2CC1CN(C(=O)/C(C#N)=C/c1cccc(C(F)(F)F)n1)C2 (mixture of isomers) [Compound B188, (E/Z)-2-(6-(2,6-dimethoxy-4-(1,4,5-trimethyl-6-oxo-1,6-dihydropyridin-3-yl)benzyl)-3,6-diazabicyclo[3.1.1]heptane-3-carbonyl)-3-(6-(trifluoromethyl)pyridin-2-yl)acrylonitrile] | < 1.25 | > 75 | 
COc1cc(-c2cn(C)c(=O)c(C)c2C)cc(OC)c1CN1C2CC1CN(C(=O)/C(C#N)=C/C1(F)CC1)C2 (mixture of isomers) [Compound B189, (E/Z)-2-(6-(2,6-dimethoxy-4-(1,4,5-trimethyl-6-oxo-1,6-dihydropyridin-3-yl)benzyl)-3,6-diazabicyclo[3.1.1]heptane-3-carbonyl)-3-(1-fluorocyclopropyl)acrylonitrile] | 1.25 to 10 | > 75 | 
COc1cc(-c2cn(C)c(=O)c(C)c2C)cc(OC)c1CN1C[C@@H](C)N(C(=O)/C(C#N)=C/C(C)(C)C)C[C@@H]1C (mixture of isomers) [Compound B190, (E/Z)-2-((2R,5S)-4-(2,6-dimethoxy-4-(1,4,5-trimethyl-6-oxo-1,6-dihydropyridin-3-yl)benzyl)-2,6-dimethylpiperazine-1-carbonyl)-4,4-dimethylpent-2-enenitrile] | 25 to 1000 | 40 to 70 | 

The next lines start with the values.

DC50 (Assay protocol 2) [nM] | Dmax [1] [%] | Dmax (Assay protocol 2) | SMILES
1.25 to 10 | 40 to 70 |  | COc1cc(-c2cn(C)c(=O)c(C)c2C)cc(OC)c1CN1CCC(Cc2cccc3c2CCN(C(=O)/C(C#N)=C/C(C)(C)C)C3C)CC1 (mixture of isomers) [Compound B156, (E/Z)-2-(5-((1-(2,6-dimethoxy-4-(1,4,5-trimethyl-6-oxo-1,6-dihydropyridin-3-yl)benzyl)piperidin-4-yl)methyl)-1-methyl-1,2,3,4-tetrahydroisoquinoline-2-carbonyl)-4,4-dimethylpent-2-enenitrile]
< 1.25 | > 75 |  | COc1cc(-c2cn(C)c(=O)c3[nH]ncc23)cc(OC)c1CN1CCN(Cc2cccc3c2CCN(C(=O)/C(C#N)=C/C(C)(C)C)C3C)CC12CC2 (mixture of isomers) [Compound B158, (E/Z)-2-(5-((4-(2,6-dimethoxy-4-(6-methyl-7-oxo-6,7-dihydro-1H-pyrazolo[3,4-c]pyridin-4-yl)benzyl)-4,7-diazaspiro[2.5]octan-7-yl)methyl)-1-methyl-1,2,3,4-tetrahydroisoquinoline-2-carbonyl)-4,4-dimethylpent-2-enenitrile]
< 1.25 | 40 to 70 |  | COc1cc(-c2cn(C)c(=O)c(C)c2C)cc(OC)c1CN1CCN(Cc2cccc3c2CCN(C(=O)/C(C#N)=C/C(C)(C)C)C3C)CC1(C)C (mixture of isomers) [Compound B159, (E/Z)-2-(5-((4-(2,6-dimethoxy-4-(1,4,5-trimethyl-6-oxo-1,6-dihydropyridin-3-yl)benzyl)-3,3-dimethylpiperazin-1-yl)methyl)-1-methyl-1,2,3,4-tetrahydroisoquinoline-2-carbonyl)-4,4-dimethylpent-2-enenitrile]
1.25 to 10 | > 75 |  | COc1cc(-c2cn(C)c(=O)c(C)c2C)cc(OC)c1CN1CCN(Cc2cccc3c2CCN(C(=O)/C(C#N)=C/C2(C(F)(F)F)CCC2)C3C)C2(CC2)C1 (mixture of isomers) [Compound B160, (E/Z)-2-[5-[[7-[[2,6-dimethoxy-4-(1,4,5-trimethyl-6-oxo-3-pyridyl)phenyl]methyl]-4,7-diazaspiro[2.5]octan-4-yl]methyl]-1-methyl-3,4-dihydro-1H-isoquinoline-2-carbonyl]-3-[1-(trifluoromethyl)cyclobutyl]prop-2-enenitrile]
< 1.25 | > 75 |  | COc1cc(-c2cn(C)c(=O)c(C)c2C)cc(OC)c1CN1CCN(Cc2cccc3c2CCN(C(=O)/C(C#N)=C\C24CC(C)(C2)C4)C3C)C2(CC2)C1 (mixture of isomers) [Compound B161, (E/Z)-2-(5-((7-(2,6-dimethoxy-4-(1,4,5-trimethyl-6-oxo-1,6-dihydropyridin-3-yl)benzyl)-4,7-diazaspiro[2.5]octan-4-yl)methyl)-1-methyl-1,2,3,4-tetrahydroisoquinoline-2-carbonyl)-3-(3-methylbicyclo[1.1.1]pentan-1-yl)acrylonitrile]
< 1.25 |  | +++ (+++ = ≥75%) | COc1cc(-c2cn(C)c(=O)c(C)c2C)cc(OC)c1CN1CCN(Cc2cccc3c2CCN(C(=O)/C(C#N)=C/C2CCOC2)C3C)C2(CC2)C1 (mixture of isomers) [Compound B173, (E/Z)-2-(5-((7-(2,6-dimethoxy-4-(1,4,5-trimethyl-6-oxo-1,6-dihydropyridin-3-yl)benzyl)-4,7-diazaspiro[2.5]octan-4-yl)methyl)-1-methyl-1,2,3,4-tetrahydroisoquinoline-2-carbonyl)-3-(tetrahydrofuran-3-yl)acrylonitril]
< 1.25 | > 75 |  | COc1cc(-c2cn(C)c(=O)c(C)c2C)cc(OC)c1CN1CCN(Cc2cccc3c2CCN(C(=O)/C(C#N)=C/C2(C)CCOC2)C3C)C2(CC2)C1 (mixture of isomers) [Compound B174, (E/Z)-2-(5-((7-(2,6-dimethoxy-4-(1,4,5-trimethyl-6-oxo-1,6-dihydropyridin-3-yl)benzyl)-4,7-diazaspiro[2.5]octan-4-yl)methyl)-1-methyl-1,2,3,4-tetrahydroisoquinoline-2-carbonyl)-3-(3-methyltetrahydrofuran-3-yl)acrylonitrile]
< 1.25 | > 75 |  | COc1cc(-c2cn(C)c(=O)c(C)c2C)cc(OC)c1CN1CCN(Cc2cccc3c2CCN(C(=O)C(C#N)=CC24CC(OC)(C2)C4)C3C)C2(CC2)C1 (mixture of isomers) [Compound B191, (E/Z)-2-(5-((7-(2,6-dimethoxy-4-(1,4,5-trimethyl-6-oxo-1,6-dihydropyridin-3-yl)benzyl)-4,7-diazaspiro[2.5]octan-4-yl)methyl)-1-methyl-1,2,3,4-tetrahydroisoquinoline-2-carbonyl)-3-(3-methoxybicyclo[1.1.1]pentan-1-yl)acrylonitrile]
